Source: patent US9273095B2, “Antibiotic peptide and preparation method therefor and application therefor” (priority 2011, dated 2016)
Values after ≈ are worked out from the molar mass of the structure shown. Read-outs that look alike come from different tables or passages of the source. Non-standard residues stand in square brackets, D forms with d. Residues, ends and D or L forms follow the SMILES beside them.

Assays:
Enterococcus faecium = assay: microbe, parasite or virus in culture; type: cell-based
Experimental: (§1) The experimental strains are 37 standard strains preserved in lab and clinical isolated bacteria, including drug-resistant bacteria and quality-control bacteria selecting Staphylococcus aureus ATCC29213, Enterococcus faecalis ATCC29212, Escherichia coli ATCC25922, Pseudomonas aeruginosa ATCC27853 and klebsiella pneumoniae ATCC700603.
(§2) (1) Sensitivity test is conducted with two-fold agar dilution method and Denlay multipoint inoculator. Test bacteria are cultured with nutrient broth and brain heart infusion.
(§3) (2) The drug is double diluted into different concentration with MH broth after dissolved and then placed in the plate respectively.
(§4) (4) After solidification of the culture medium in the plate, test bacteria (10^4CFU/point) are inoculated by multipoint inoculator and cultured for 18 hours at constant 35° C. Then observe the results.

Enterococcus faecalis = assay: organism not typed; type: cell-based
Experimental: as §1, §2, §3, §4

Shigella sonnei = assay: microbe, parasite or virus in culture; type: cell-based; conditions: Shigella sonnei strains 51592
Experimental: as §1, §2, §3
(§5) (3) After dissolved, MH agar culture medium are injected into the plate with drug quantitatively and mixed to make the final concentration of drug are 0.03, 0.06, 0.125, . . . , 128 μg/ml respectively.
as §4

Feilaoti citrobacter = assay: microbe, parasite or virus in culture; type: cell-based
Experimental: as §1, §2, §3, §5, §4

[1] = system: Acinetobacter calcoaceticus; assay: microbe, parasite or virus in culture; type: cell-based
Experimental: as §1, §2, §3, §5, §4

Enterobacter cloacae = assay: microbe, parasite or virus in culture; type: cell-based
Experimental: as §1, §2, §3, §5, §4

Shigella = assay: microbe, parasite or virus in culture; type: cell-based
Experimental: as §1, §2, §3, §5, §4

klebsiella pneumoniae = assay: microbe, parasite or virus in culture; type: cell-based; conditions: Klebsiella pneumoniae
Experimental: as §1, §2, §3, §5, §4

Proteus vulgaris = assay: microbe, parasite or virus in culture; type: cell-based
Experimental: as §1, §2, §3, §5, §4

[2] = system: Staphylococcus epidermidis; assay: microbe, parasite or virus in culture; type: cell-based
Experimental: as §1, §2, §3, §5, §4

Enterobacter aerogenes = assay: microbe, parasite or virus in culture; type: cell-based
Experimental: as §1, §2, §3, §5, §4

Shigella flexneri = assay: microbe, parasite or virus in culture; type: cell-based
Experimental: as §1, §2, §3, §5, §4

Pseudomonas aeruginosa = assay: microbe, parasite or virus in culture; type: cell-based; conditions: Pseudomonas aeruginosa
Experimental: as §1, §2, §3, §5, §4

Staphylococcus aureus = assay: microbe, parasite or virus in culture; type: cell-based
Experimental: as §1, §2, §3, §5, §4

Salmonella typhimurium = assay: microbe, parasite or virus in culture; type: cell-based
Experimental: as §1, §2, §3, §5, §4

Typhoid bacillus H901 = assay: microbe, parasite or virus in culture; type: cell-based
Experimental: as §1, §2, §3, §5, §4

Escherichia coli = assay: microbe, parasite or virus in culture; type: cell-based; conditions: Escherichia coli
Experimental: as §1, §2, §3, §5, §4

Serratia marcescens = assay: microbe, parasite or virus in culture; type: cell-based
Experimental: as §1, §2, §3, §5, §4

[3] = Circular dichroism (CD) spectroscopy, helical structure; type: physicochemical
Experimental: The mean residue molar ellipticities of peptides are determined by circular dichroism (CD) spectroscopy, using a Jasco J-720 spectropolarimeter (Jasco, Easton, Md.), at 25° C. under benign conditions (50 mM KH2PO4/K2HPO4/100 mM KCl, pH7), as well as in the presence of an α-helix inducing solvent, 2,2,2-trifluoroethanol (TFE) (50 mM KH2PO4/K2HPO4/100 mM KCL, pH 7 buffer/50% TFE). A 10-fold dilution of a 500 μM stock solution of the peptide is loaded into a 0.02 cm fused silica cell and its mean residue molar ellipticity scanned from 190 to 250 nm. The values of mean residue molar ellipticities of the peptide at a wavelength of 222 nm are used to estimate the relative amount of α-helicity of the peptides.
To determine the secondary structure of peptides in different environments, circular dichroism (CD) spectra of the peptide analogs are measured under physiologically related pH and ionic strength (100 mM KCl, 50 mM aq. PO4, pH 7 referred to as benign conditions) and also in 50% TFE to mimic the hydrophobic environment of the membrane. CD spectra of the peptide analogs are measured under benign conditions (100 mM KCl, 50 mM KH2PO4/K2HPO4, pH 7, referred to as KP buffer) and also in 50% trifluoroethanol (TFE) to mimic the hydrophobic environment of the membrane. […] However, in the presence of 50% TFE, all three L-peptides are fully folded α-helical structures with similar molar ellipticities and helicity.
FIG. 2 illustrates graphical results of Circular dichroism (CD) spectra of peptides at pH 7.4 and 25° C., in 50 mM aq. PO4 containing 100 mM KCl, wherein KP buffer (50 mM KH2PO4, K2HPO4, 100 mM KCl, pH 7.4) mimics hydrophilic environment and KP buffer-TFE (1:1 [vol/vol]) mimics hydrophobic environment of cell membrane. The figure above represents the CD spectra of peptides in benign buffer without TFE, whilst the figure below represents CD spectra obtained in the presence of 50% TFE.

[4] = 06-71 (VRE) Vancomycin-resistant Enterococci, read-out: MIC
[5] = 08-52(MRSA) Methicillin-resistant staphylococcus aureus

SMILES: C[C@H]1COc2c(N3CCN(C)CC3)c(F)cc3c(=O)c(C(=O)O)cn1c23 [Levofloxacin, levofloxacin, reference compound]
- MIC (Enterococcus faecium; Enterococcus faecium 06-1): 2.40 µM (≈ 0.867 µg/mL)
- MIC (Enterococcus faecium; Enterococcus faecium, 06-12 (VREF) Vancomycin-resistant enterococci): 2.4 µM (≈ 0.867 µg/mL)
- MIC (Enterococcus faecalis; [4]): 2.4 µM (≈ 0.867 µg/mL)
- MIC (Enterococcus faecalis; Enterococcus faecalis, ATCC29212, Enterococcus faecalis ATCC29212): 1.2 µM (≈ 0.434 µg/mL)
- MIC (Enterococcus faecalis; Enterococcus faecalis, HH22* (AMEs) Aminoglycoside-modifying enzyme): 1.2 µM (≈ 0.434 µg/mL)
- MIC (Enterococcus faecalis; Enterococcus faecalis, strain 06-7 (listed under Enterococcus faecalis)): 19.2 µM (≈ 6.95 µg/mL)
- MIC (Shigella sonnei): 0.1 µM (≈ 0.0361 µg/mL)
- MIC (Feilaoti citrobacter; Feilaoti citrobacter 48001): 0.1 µM (≈ 0.0361 µg/mL)
- MIC ([1]; Acinetobacter calcoaceticus, Acinetobacter calcoaceticus25001): 0.1 µM (≈ 0.0361 µg/mL)
- MIC (Enterobacter cloacae; Enterobacter cloacae 45301): 0.1 µM (≈ 0.0361 µg/mL)
- MIC (Shigella): < 0.02 µM
- MIC (klebsiella pneumoniae; 08-2 (ESBLs) (listed under klebsiella pneumoniae)): 76.9 µM (≈ 27.8 µg/mL)
- MIC (klebsiella pneumoniae; ATCC700603, klebsiella pneumoniae ATCC700603): 1.2 µM (≈ 0.434 µg/mL)
- MIC (klebsiella pneumoniae; strain 7 (listed under klebsiella pneumoniae)): < 16 µM
- MIC (Proteus vulgaris; Proteus vulgaris 56): < 0.007 µM
- MIC ([2]; 08-17 (MSSE) Meticillin susceptible staphylococcus epidermidis): 1.2 µM (≈ 0.434 µg/mL)
- MIC ([2]; 08-18 (MRSE) Methicillin-resistant staphylococcus epidermidis): 55.5 µM (≈ 20.1 µg/mL)
- MIC ([2]; ATCC 12228 / MRSE, (MRSE) Methicillin-resistant Staphylococcus epidermidis ATCC12228): 0.3 µM (≈ 0.108 µg/mL)
- MIC (Enterobacter aerogenes; Klebsiella aerogenes, Enterobacter aerogenes 45102): < 0.02 µM
- MIC (Shigella flexneri): 0.1 µM (≈ 0.0361 µg/mL)
- MIC (Pseudomonas aeruginosa; Pseudomonas aeruginosa TCC27853): 1.2 µM (≈ 0.434 µg/mL)
- MIC (Pseudomonas aeruginosa; strain 17 (listed under Pseudomonas aeruginosa)): 0.7 µM (≈ 0.253 µg/mL)
- MIC (Staphylococcus aureus; 08-49(MSSA) Meticillin susceptible staphylococcus aureus): 0.3 µM (≈ 0.108 µg/mL)
- MIC (Staphylococcus aureus; [5]): 76.9 µM (≈ 27.8 µg/mL)
- MIC (Staphylococcus aureus; Staphylococcus aureus ATCC25923): 0.3 µM (≈ 0.108 µg/mL)
- MIC (Staphylococcus aureus; Staphylococcus aureus ATCC29213): 0.6 µM (≈ 0.217 µg/mL)
- MIC (Staphylococcus aureus; strain 15 (listed under Staphylococcus aureus)): 0.3 µM (≈ 0.108 µg/mL)
- MIC (Salmonella typhimurium; Salmonella enterica, Salmonella typhimurium): < 0.02 µM
- MIC (Typhoid bacillus H901): < 0.02 µM
- MIC (Escherichia coli; 08-5 (ESBLs) Extended Spectyumβ-lactamase): 76.9 µM (≈ 27.8 µg/mL)
- MIC (Escherichia coli; 272(TEM-88)): < 0.7 µM
- MIC (Escherichia coli; 274 (TEM-15)): 0.2 µM (≈ 0.0723 µg/mL)
- MIC (Escherichia coli; 276 (TEM-52)): < 0.2 µM
- MIC (Escherichia coli; ATCC25922, Escherichia coli ATCC 25922): 0.14 µM (≈ 0.0506 µg/mL)
- MIC (Escherichia coli; strain 26 (listed under Escherichia coli)): < 0.7 µM
- MIC (Serratia marcescens; Serratia marcescens 41002): 0.1 µM (≈ 0.0361 µg/mL)

SMILES: CC(=O)N[C@H](Cc1ccccc1)C(=O)N[C@H](CCCCN)C(=O)N[C@H](CCCCN)C(=O)N[C@H](CC(C)C)C(=O)N[C@H](CCCCN)C(=O)N[C@H](CCCCN)C(=O)N[C@H](CC(C)C)C(=O)N[C@H](Cc1ccccc1)C(=O)N[C@H](CO)C(=O)N[C@H](CCCCN)C(=O)N[C@H](CC(C)C)C(=O)N[C@H](Cc1c[nH]c2ccccc12)C(=O)N[C@H](CC(N)=O)C(=O)N[C@H](Cc1c[nH]c2ccccc12)C(=O)N[C@H](CCCCN)C(N)=O [PL-18] (Ac-[dF][dK][dK][dL][dK][dK][dL][dF][dS][dK][dL][dW][dN][dW][dK]-NH2)
- MIC (Enterococcus faecium; 06-12 (VREF) Vancomycin-resistant enterococci): 5.3 µM (≈ 10.8 µg/mL)
- MIC (Enterococcus faecium; Enterococcus faecium 06-1): 5.3 µM (≈ 10.8 µg/mL)
- MIC (Enterococcus faecalis; [4]): 1.3 µM (≈ 2.65 µg/mL)
- MIC (Enterococcus faecalis; HH22* (AMEs) Aminoglycoside-modifying enzyme, read-out: MIC): 1.7 µM (≈ 3.46 µg/mL)
- MIC (Shigella sonnei): 0.04 µM (≈ 0.0814 µg/mL)
- MIC (Feilaoti citrobacter): 0.3 µM (≈ 0.611 µg/mL)
- MIC [1]: 1.7 µM (≈ 3.46 µg/mL)
- MIC (Enterobacter cloacae): 0.04 µM (≈ 0.0814 µg/mL)
- MIC (Shigella): 1.3 µM (≈ 2.65 µg/mL)
- MIC (Proteus vulgaris): 5.3 µM (≈ 10.8 µg/mL)
- MIC [2]: 0.7 µM (≈ 1.42 µg/mL)
- MIC (Enterobacter aerogenes): 0.04 µM (≈ 0.0814 µg/mL)
- MIC (Staphylococcus aureus): 0.7 µM (≈ 1.42 µg/mL)
- MIC (Staphylococcus aureus; [5]): 2.7 µM (≈ 5.5 µg/mL)
- MIC (Salmonella typhimurium; murium): 0.3 µM (≈ 0.611 µg/mL)
- MIC (Typhoid bacillus H901): 0.3 µM (≈ 0.611 µg/mL)
- MIC (Serratia marcescens): 0.04 µM (≈ 0.0814 µg/mL)
- 50% TFE % helix ([3]; 50% TFE, relative to ellipticity (100%) of reference peptide in 50% TFE): 80.5%
- Benign buffer % helix ([3]; benign buffer, relative to ellipticity (100%) of reference peptide in 50% TFE): 8.2%
- Benign buffer [θ]222 ([3]; mean residue molar ellipticity at 222 nm, 25° C., 100 mM KCl, 50 mM PO4, pH 7.0): 2300 deg · cm^2 · dmol^−1
